The test system of experiment [1] is HIV‐1 LTR (Jurkat^Tat LTR‐DsRed clone #131). Description: mdHIV LTR‐DsRed reporter assay, clone #131. Format: cell-based. From the text:
HIV‐1 tends to integrate into actively transcribed regions of the host genome (Jordan et al, 2003; Lewinski et al, 2006; Ikeda et al, 2007). Each HIV‐1‐infected patient carries viral DNA integrated at different chromosomal locations, and as we have previously shown, the site of viral integration influences how latently infected T cells respond to different stimuli (Hashemi et al, 2016). Therefore, an ideal LRA should be capable of disrupting latency in cell models carrying integrated viral reporters at multiple different regions within the host genome. […]
Figure 5 Effect of PH02 on HIV provirus integrated at different chromosomal locations • A The effect of PH compounds was analyzed using clonal lines bearing single‐copy integrations of the mini‐dual fluorescent HIV‐1 LTR reporter, md‐HIV, where GFP is constitutively expressed from the EIF‐1α internal promoter, and DsRed from the 5′ LTR. • B Fluorescence‐activated cell sorting (FACS) of cells bearing md‐HIV provirus indicates expression of EIF‐1α‐GFP and LTR‐dsRed. Stimulation of the md‐HIV lines generally causes a shift of the fluorescence profile from GFP^+/DsRed^− toward GFP^+/DsRed^+. • C, D Clone 11 or clone 131 was treated with the indicated concentrations of PH02 (left panels) or PH02 in combination with 10 nM PEP005 (right panels) for 24 h and cells analyzed by flow cytometry. […]

For experiment [2], the system named is latent HIV‐1 provirus in resting CD4^+ T cells from HIV‐1‐infected patients. Description: Supernatant HIV‐1 RNA from resting CD4+ T cells of patients (RT–qPCR). It is filed as cell-based. The following applies: 30 μM, 24 h. As to the method: For this analysis, we purified resting CD4^+ (rCD4^+) T lymphocytes from pools of patient samples by two‐step negative selection (Appendix Table S3). […] Purified rCD4^+ T cells were treated with 30 μM of each PH compound for 24 h, and RNA from the culture supernatants was analyzed by one‐step RT–qPCR, where results are presented as copy numbers of the virion/ml. […] Based on its capability for reactivating latent provirus at multiple chromosomal locations in cell lines, its negligible toxic effect, and that it produces the most robust reactivation of virus from patient samples, we focused our subsequent analysis on this compound (Table 1).
Figure 8 Effect of PH compounds on expression of HIV provirus in latently infected cells from patients Resting CD4^+ T cells purified from patient samples (n = 18, Appendix Table S3) were treated with 30 μM of each PH compound for 24 h, and HIV‐1 RNA was measured in culture supernatants. Results are presented as HIV virions/ml (mean ± SE). LOD indicates the limit of detection, 100 copies/ml culture supernatant. TEXT PRINTED IN THE PICTURE: PMA: Supernatant HIV-1 mRNA (Copies/ml): 308929.80 (50 nM) | PH01: Supernatant HIV-1 mRNA (Copies/ml): 5348.04 (Single Concentration (30μM)) | PH02: Supernatant HIV-1 mRNA (Copies/ml): 17624.53 (Single Concentration (30μM)) | PH03: Supernatant HIV-1 mRNA (Copies/ml): 4714.11 (Single Concentration (30μM)) | PH04: Supernatant HIV-1 mRNA (Copies/ml): 7134.68 (Single Concentration (30μM)) | PH05: Supernatant HIV-1 mRNA (Copies/ml): 587.19 (Single Concentration (30μM))
HIV‐1 RNA was measured from 1 × 10^6 resting CD4^+ T lymphocytes treated with 30 μM of each compound. Extracellular RNA was isolated using the ZR Viral RNA Kit (Zymo Research) and total cellular mRNA using the RNeasy MinElute cleanup kit (Qiagen). HIV‐1 RNA concentrations were assayed in one‐step RT–qPCRs using the iTaq™ universal SYBR Green one‐step kit (BIO‐RAD) with the HIV‐1 LTR‐specific primers, AGCCGCCTAGCATTTCATC and […]. RNA copy number was calculated using a standard curve generated from titrated infections with RGH‐PGK virus (Dahabieh et al, 2013). Reproducibility of RT–qPCR analysis was confirmed using a second set of primers within HIV‐1 p24 Gag, AGCAGCCATGCAAATGTTA, […]. HIV‐1 RNA determinations were normalized to GAPDH RNA measured using the primers […] and […].
A general note: Quantitative PCR measures a nucleic acid by following its amplification.

With `CC(=O)Oc1ccccc1N(C=C1Sc2ccccc2C1=O)C(C)=O` [PH02, 2‐{acetyl[(3‐oxo‐1‐benzothien‐2(3H)‐ylidene)methyl]amino}phenyl acetate], in experiment [1] (PH02 alone, 24 h, serial dilutions 28–0.2 μM), the “concentration reactivating viral transcription (LTR‐DsRed, ∆MFI)” value is “above 1.75 μM”. Moreover, the “PH02 concentration producing increased effects on HIV‐1 LTR transcription with PEP005” value in experiment [1] (in combination with 10 nM PEP005, 24 h) is on record as “above 1.75 μM”. The “viral latency‐reversing activity compared to PMA” value in experiment [2] is given as “consistently produced the strongest effect”. The “Supernatant HIV-1 mRNA” value in experiment [2] (LOD 100 copies/ml) was 17624.53 Copies/ml.
